Results from US20080234276A1, “Heterocyclic Triazines as Hypoxic Selective Protein Kinase Inhibitors” (SENTINEL ONCOLOGY LIMITED, priority 2005, published 2008).

How the values were obtained:
Format in all cases: biochemical
Arg (h) = biological target: T1, Arg (h) (Homo sapiens, UniProt P42684); assay: Arg (h) kinase assay (Upstate, 33P-ATP filtermat); details: 100 uM of inhibitor; ATP 45 uM
T1 construct: purchased Upstate Ltd
Description: (§1) The compounds of the invention prepared in Examples 1-32 were tested for kinase inhibition against a range of common protein kinases. All kinase assays were conducted at Upstate Ltd, Gemini Crescent, Dundee Technology Park, Dundee, DD2 1SW, UK in accordance with its standard protocols as follows:
(§2) In a final reaction volume of 25 μl, Arg (h) (5-10 mU) is incubated with 8 mM MOPS pH 7.0, 0.2 mM EDTA, 50 μM EAIYAAPFAKKK, 10 mM MgAcetate and [[…]-33P-ATP] (specific activity approx. 500 cpm/pmol, concentration as required). The reaction is initiated by the addition of the MgATP mix. After incubation for 40 minutes at room temperature, the reaction is stopped by the addition of 5 μl of a 3% phosphoric acid solution. 10 μl of the reaction is then spotted onto a P30 filtermat and washed three times for 5 minutes in 75 mM phosphoric acid and once in methanol prior to drying and scintillation counting.
(§3) Data for compounds. ATP concentrations are: Arg=45 uM; abl=45 uM; AuroraA=15 uM; Chk1=90 uM; KDR=90 uM; P70S6=15 uM. Figures represent the % inhibition when tested at 100 uM of inhibitor.

Abl (h) = biological target: T2, Abl (h) (Homo sapiens, UniProt P00519); assay: Abl (h) kinase assay (Upstate, 33P-ATP filtermat); details: 100 uM of inhibitor; ATP 45 uM
T2 construct: purchased Upstate Ltd
T2 sequence (P00519 whole entry): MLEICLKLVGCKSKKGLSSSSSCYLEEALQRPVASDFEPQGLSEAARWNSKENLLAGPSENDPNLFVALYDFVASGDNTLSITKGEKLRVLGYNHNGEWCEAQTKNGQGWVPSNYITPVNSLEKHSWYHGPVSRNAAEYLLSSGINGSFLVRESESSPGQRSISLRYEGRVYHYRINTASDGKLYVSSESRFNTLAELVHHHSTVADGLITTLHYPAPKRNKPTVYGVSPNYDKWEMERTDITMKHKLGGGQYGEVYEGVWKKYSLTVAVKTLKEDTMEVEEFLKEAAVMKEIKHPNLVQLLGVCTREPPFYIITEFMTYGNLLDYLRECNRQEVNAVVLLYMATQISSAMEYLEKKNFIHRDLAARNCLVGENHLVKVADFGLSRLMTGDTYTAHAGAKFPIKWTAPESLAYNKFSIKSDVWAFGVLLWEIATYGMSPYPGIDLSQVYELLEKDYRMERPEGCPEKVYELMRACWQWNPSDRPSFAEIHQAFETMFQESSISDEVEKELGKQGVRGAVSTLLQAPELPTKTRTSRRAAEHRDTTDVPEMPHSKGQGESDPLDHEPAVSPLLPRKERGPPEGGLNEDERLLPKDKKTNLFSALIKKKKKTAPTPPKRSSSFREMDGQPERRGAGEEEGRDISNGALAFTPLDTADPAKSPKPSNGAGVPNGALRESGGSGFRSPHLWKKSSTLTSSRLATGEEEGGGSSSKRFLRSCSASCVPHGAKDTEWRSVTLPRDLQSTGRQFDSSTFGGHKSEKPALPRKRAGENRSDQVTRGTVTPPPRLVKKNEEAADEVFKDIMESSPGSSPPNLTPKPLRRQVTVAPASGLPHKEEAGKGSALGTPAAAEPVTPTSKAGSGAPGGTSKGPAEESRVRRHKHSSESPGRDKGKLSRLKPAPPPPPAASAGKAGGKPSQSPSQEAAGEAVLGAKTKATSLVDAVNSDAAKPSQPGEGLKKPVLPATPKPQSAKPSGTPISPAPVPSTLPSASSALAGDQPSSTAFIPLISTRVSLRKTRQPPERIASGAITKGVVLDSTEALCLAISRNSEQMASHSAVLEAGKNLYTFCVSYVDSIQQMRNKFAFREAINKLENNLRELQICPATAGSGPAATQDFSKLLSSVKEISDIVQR
Description: as §1
as §2, with “Abl” for “Arg”
as §3

Aurora-A (h) = biological target: T3, Aurora-A (h) (Homo sapiens, UniProt O14965); assay: Aurora-A (h) kinase assay (Upstate, 33P-ATP filtermat); details: 100 uM of inhibitor, ATP 15 uM; for inhibition at 100 µM: read-out: AuroraA (h) % inhibition
T3 construct: purchased Upstate Ltd
T3 sequence (O14965 1-403): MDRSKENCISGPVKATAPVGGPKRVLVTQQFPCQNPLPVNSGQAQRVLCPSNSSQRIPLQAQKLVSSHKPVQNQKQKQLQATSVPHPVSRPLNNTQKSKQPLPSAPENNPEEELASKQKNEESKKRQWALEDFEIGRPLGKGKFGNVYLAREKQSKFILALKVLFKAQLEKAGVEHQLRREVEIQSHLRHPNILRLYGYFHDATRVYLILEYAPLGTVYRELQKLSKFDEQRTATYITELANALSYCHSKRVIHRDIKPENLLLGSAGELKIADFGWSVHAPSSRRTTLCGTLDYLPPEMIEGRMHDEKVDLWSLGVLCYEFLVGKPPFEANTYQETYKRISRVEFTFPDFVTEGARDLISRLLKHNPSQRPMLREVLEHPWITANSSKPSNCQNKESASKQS
Description: as §1
as §2, with “μl, Aurora-A” for “μl, Arg”, “EDTA, 200” for “EDTA, 50”, “μM LRRASLG (Kemptide),” for “μM EAIYAAPFAKKK,”, “and […]-33P-ATP]” for “and [[…]-33P-ATP]”, “in 50” for “in 75”
as §3

CHK1 (h) = biological target: T4, CHK1 (h) (Homo sapiens, UniProt O14757); assay: CHK1 (h) kinase assay (Upstate, 33P-ATP filtermat); details: 100 uM of inhibitor; ATP 90 uM
T4 construct: purchased Upstate Ltd
T4 sequence (O14757 1-476): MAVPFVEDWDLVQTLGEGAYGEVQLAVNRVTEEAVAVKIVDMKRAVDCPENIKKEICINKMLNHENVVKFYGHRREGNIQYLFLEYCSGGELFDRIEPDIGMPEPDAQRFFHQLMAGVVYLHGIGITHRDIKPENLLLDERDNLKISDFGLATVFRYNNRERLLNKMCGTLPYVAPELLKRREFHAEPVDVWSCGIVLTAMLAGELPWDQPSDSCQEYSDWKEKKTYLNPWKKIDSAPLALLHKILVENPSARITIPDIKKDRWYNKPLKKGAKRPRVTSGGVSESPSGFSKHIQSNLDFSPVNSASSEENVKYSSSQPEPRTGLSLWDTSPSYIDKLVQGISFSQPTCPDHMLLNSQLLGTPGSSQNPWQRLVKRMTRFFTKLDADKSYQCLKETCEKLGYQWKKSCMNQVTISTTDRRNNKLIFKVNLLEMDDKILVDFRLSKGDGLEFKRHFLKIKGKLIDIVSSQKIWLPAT
Description: as §1
as §2, with “μl, CHK1” for “μl, Arg”, “EDTA, 200” for “EDTA, 50”, “μM […],” for “μM EAIYAAPFAKKK,”, “and […]-33P-ATP]” for “and [[…]-33P-ATP]”
as §3

p70S6K (h) = biological target: T5, p70S6K (h) (Homo sapiens, UniProt P23443); assay: p70S6K (h) kinase assay (Upstate, 33P-ATP filtermat); details: 100 uM of inhibitor, ATP 15 uM; for inhibition at 100 µM: read-out: P70S6 (h) % inhibition
T5 construct: purchased Upstate Ltd
T5 sequence (P23443 whole entry): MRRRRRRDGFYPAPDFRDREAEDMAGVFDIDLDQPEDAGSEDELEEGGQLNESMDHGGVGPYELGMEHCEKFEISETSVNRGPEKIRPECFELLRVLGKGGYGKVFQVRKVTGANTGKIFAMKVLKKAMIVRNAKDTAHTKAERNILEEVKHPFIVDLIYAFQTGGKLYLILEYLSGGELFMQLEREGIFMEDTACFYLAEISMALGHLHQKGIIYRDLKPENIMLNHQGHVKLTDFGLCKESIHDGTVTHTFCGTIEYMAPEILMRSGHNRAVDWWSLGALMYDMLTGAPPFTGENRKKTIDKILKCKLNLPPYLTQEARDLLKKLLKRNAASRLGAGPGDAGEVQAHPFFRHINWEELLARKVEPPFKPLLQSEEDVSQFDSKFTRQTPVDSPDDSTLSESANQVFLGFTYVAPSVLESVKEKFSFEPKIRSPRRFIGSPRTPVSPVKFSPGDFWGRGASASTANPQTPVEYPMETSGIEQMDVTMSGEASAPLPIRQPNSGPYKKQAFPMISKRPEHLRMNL
Description: as §1
as §2, with “μl, p70S6K” for “μl, Arg”, “EDTA, 100” for “EDTA, 50”, “μM KKRNRTLTV,” for “μM EAIYAAPFAKKK,”
as §3

KDR (h) = biological target: T6, KDR (h) (Homo sapiens, UniProt P35968); assay: KDR (h) kinase assay (Upstate, 33P-ATP filtermat); details: 100 uM of inhibitor; ATP 90 uM
T6 construct: purchased Upstate Ltd
T6 sequence (P35968 20-1356): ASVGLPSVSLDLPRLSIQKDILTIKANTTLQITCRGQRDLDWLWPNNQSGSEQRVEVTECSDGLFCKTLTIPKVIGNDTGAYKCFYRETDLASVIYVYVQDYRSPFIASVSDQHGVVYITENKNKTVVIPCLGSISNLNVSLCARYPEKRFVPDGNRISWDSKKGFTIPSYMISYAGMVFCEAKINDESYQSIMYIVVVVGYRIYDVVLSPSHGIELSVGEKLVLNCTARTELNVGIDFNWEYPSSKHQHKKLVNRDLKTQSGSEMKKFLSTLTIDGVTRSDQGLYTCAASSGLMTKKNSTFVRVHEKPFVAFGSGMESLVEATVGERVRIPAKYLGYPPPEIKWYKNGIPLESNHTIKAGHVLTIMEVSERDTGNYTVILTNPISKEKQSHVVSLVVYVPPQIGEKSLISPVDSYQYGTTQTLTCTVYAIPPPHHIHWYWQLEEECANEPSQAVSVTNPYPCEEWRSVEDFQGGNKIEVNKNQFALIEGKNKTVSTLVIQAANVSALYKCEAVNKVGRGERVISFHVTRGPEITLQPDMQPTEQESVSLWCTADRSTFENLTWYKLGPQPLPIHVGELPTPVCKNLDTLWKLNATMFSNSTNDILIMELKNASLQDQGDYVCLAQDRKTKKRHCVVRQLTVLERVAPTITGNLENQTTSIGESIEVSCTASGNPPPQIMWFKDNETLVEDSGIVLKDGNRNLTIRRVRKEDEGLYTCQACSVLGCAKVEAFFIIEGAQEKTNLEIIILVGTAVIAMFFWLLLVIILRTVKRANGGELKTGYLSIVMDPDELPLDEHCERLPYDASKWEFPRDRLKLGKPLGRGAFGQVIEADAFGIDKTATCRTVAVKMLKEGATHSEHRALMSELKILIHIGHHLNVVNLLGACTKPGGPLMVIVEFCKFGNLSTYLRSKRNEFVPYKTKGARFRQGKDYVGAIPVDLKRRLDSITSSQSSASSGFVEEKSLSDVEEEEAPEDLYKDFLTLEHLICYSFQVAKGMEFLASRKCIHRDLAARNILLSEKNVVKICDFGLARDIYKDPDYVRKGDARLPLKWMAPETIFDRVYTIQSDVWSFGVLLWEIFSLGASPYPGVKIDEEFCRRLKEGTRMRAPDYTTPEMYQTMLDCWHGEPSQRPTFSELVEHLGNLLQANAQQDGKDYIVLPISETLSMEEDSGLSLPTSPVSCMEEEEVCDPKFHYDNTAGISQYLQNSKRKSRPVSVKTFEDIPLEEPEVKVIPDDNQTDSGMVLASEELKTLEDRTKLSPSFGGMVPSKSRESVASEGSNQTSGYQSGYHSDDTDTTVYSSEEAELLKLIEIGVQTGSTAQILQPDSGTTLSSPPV
Description: as §1
as §2, with “KDR” for “Arg”, “0.33 mg/ml myelin basic protein,” for “50 μM EAIYAAPFAKKK,”
as §3

T1 sequence (P42684 whole entry): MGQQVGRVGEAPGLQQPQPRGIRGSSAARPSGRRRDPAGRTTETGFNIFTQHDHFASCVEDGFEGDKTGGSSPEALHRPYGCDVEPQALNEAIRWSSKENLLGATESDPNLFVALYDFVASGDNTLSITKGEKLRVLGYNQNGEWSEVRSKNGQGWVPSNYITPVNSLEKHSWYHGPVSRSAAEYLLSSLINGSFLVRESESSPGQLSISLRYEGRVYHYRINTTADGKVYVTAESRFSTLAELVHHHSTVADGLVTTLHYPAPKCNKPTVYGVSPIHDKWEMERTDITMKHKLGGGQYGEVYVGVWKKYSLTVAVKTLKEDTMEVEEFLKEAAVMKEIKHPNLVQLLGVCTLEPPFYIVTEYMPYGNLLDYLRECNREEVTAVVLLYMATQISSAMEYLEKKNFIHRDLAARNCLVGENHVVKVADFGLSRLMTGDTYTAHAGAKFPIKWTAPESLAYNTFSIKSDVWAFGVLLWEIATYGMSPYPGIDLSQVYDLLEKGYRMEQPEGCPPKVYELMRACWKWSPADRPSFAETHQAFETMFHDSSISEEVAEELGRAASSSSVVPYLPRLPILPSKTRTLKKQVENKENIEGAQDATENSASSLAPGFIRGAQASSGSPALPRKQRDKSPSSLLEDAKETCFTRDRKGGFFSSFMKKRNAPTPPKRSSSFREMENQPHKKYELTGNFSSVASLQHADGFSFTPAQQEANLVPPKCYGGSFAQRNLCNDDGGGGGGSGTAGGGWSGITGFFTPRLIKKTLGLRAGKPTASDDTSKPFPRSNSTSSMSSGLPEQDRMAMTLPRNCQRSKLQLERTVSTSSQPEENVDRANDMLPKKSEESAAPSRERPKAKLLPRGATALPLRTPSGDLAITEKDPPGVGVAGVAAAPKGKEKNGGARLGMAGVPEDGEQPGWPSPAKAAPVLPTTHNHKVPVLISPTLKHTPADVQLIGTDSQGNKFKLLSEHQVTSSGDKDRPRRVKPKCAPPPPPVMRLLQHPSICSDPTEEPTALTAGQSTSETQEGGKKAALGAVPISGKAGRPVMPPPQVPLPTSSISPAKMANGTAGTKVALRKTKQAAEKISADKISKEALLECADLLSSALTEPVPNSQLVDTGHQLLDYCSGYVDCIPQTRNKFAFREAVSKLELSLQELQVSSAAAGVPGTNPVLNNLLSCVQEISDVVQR

SMILES	inhibition at 100 µM (Arg (h)) [%]	inhibition at 100 µM (Abl (h)) [%]	inhibition at 100 µM (Aurora-A (h)) [%]	inhibition at 100 µM (CHK1 (h)) [%]	inhibition at 100 µM (p70S6K (h)) [%]	Arg (h) % inhibition (Arg (h)) [%]	Abl (h) % inhibition (Abl (h)) [%]	AuroraA (h) % inhibition (Aurora-A (h)) [%]	Chk1 (h) % inhibition (CHK1 (h)) [%]	KDR (h) % inhibition (KDR (h)) [%]	P70S6 (h) % inhibition (p70S6K (h)) [%]	inhibition at 100 µM (KDR (h)) [%]
c1cncc(Nc2nnc3ccccc3n2)c1 [Example 3, Benzo[1,2,4]triazin-3-yl-pyridin-3-yl-amine]	71	65	68	21	9							
[O-][n+]1nc(Nc2ccc(N3CCNCC3)cc2)nc2ccccc21 [Example 5, (1-Oxy-benzo[1,2,4]triazin-3-yl)-(4-piperazin-1-yl-phenyl)-amine]						78	83	24	7			
c1ccc2nc(Nc3ccc(N4CCNCC4)cc3)nnc2c1 [Example 6, Benzo[1,2,4]triazin-3-yl-(4-piperazin-1-yl-phenyl)-amine]	92	89	41	33								
Nc1nc2ccc(-c3cn[nH]c3)cc2[n+]([O-])n1 [Example 7, 1-Oxy-7-(1H-pyrazol-4-yl)-benzo[1,2,4]triazin-3-ylamine]						81	86	98	31	98	99	
Nc1nnc2cc(-c3cn[nH]c3)ccc2n1 [Example 8, 7-(1H-Pyrazol-4-yl)-benzo[1,2,4]triazin-3-ylamine]	82	87	100	26	97							96
Cc1cc(Nc2nnc3ccccc3n2)n[nH]1 [Example 11, Benzo[1,2,4]triazin-3-yl-(5-methyl-1H-pyrazol-3-yl)-amine]	40	36	37	32								
[O-][n+]1nc(Nc2ccc(N3CCNCC3)nc2)nc2ccccc21 [Example 20, (1-Oxy-benzo[1,2,4]triazin-3-yl)-(6-piperazin-1-yl-pyridin-3-yl)-amine]						77	72	52	1			
